Results from ChEMBL document CHEMBL1201862, “PubChem BioAssay data set” (2004).
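Cultured in 96-well plates, cells were exposed to test compound for 48 hours across five concentrations. At the GI50, growth is halved.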 Calls of active or inactive are those of the source. Rule as the data show it: active = GI50 up to about 1.1 µM and inactive = higher.

Assays:
Experiment in all cases: growth of human tumour cells (NCI), 48 h
[1] = system: HCC 2998
[2] = system: CAKI-1
[3] = system: ACHN
[4] = system: HT-29
[5] = system: RXF 393
[6] = system: DU-145
[7] = system: SK-MEL-28
[8] = system: SR
[9] = system: UACC-257
[10] = system: K562
[11] = system: HOP-92
[12] = system: HCT-116
[13] = system: OVCAR-3
[14] = system: IGROV-1
[15] = system: SN12C
[16] = system: NCI-H226
[17] = system: EKVX
[18] = system: SK-MEL-5
[19] = system: HCT-15
[20] = system: NCI-H522

Measured: GI50

O=C1Oc2cc(O)cc(/C=C/c3ccc(O)cc3)c2[C@@]12c1c(O)cc(O)cc1OC2c1cccc(O)c1 (stereo not given in full)
active: [14] 0.61 µM
83.4 µM: [19]
inactive: [1] 19.5 µM | [2] 83.8 µM | [3] 52.5 µM | [4] 29.2 µM | [5] 34.6 µM | [6] 39 µM | [7] 37.3 µM | [8] 42.4 µM | [9] 15.2 µM | [10] 39.8 µM | [11] 31.2 µM | [12] 29 µM | [13] 61.2 µM | [15] 25.9 µM | [16] 11.1 µM | [17] 49.3 µM | [18] 12.5 µM

CCOc1cc(C2SCC(=O)N2c2nc3cc4sc(N5C(=O)CSC5c5ccc(O)c(OCC)c5)nc4cc3s2)ccc1O (stereo not given)
8.47 µM: [19]
inactive: [1] > 100 µM | [2] > 50.7 µM | [3] > 48.4 µM | [4] 18.4 µM | [5] > 100 µM | [6] 17.8 µM | [20] 20.4 µM | [7] > 100 µM | [8] 5.85 µM | [10] > 64.6 µM | [11] 27.7 µM | [12] 20.9 µM | [13] > 100 µM | [14] 15.9 µM | [15] > 31.5 µM | [16] 23.6 µM | [17] 67.3 µM | [18] 59.2 µM

CC(C)(C)COC1C2(OCCO2)C2CCC1(C)C2(C)C (stereo not given)
22.4 µM: [19]
inactive: [1] 37.5 µM | [2] 40.1 µM | [3] 20.4 µM | [4] 32.7 µM | [5] 19.6 µM | [6] 35.7 µM | [7] 87.1 µM | [8] 21.6 µM | [9] 24.9 µM | [10] 18.5 µM | [11] 28.1 µM | [13] 17.6 µM | [14] 82.8 µM | [16] 27.4 µM | [17] 33.7 µM | [18] 30.3 µM

COc1cc(/C=C2/SC(c3ccccc3)N(c3ccc(NC(C)=O)cc3)C2=O)cc(OC)c1OC (stereo not given)
> 100 µM: [19]
inactive: [1] > 100 µM | [2] > 100 µM | [3] > 100 µM | [4] > 100 µM | [5] 64.4 µM | [6] > 100 µM | [20] 28.1 µM | [7] > 100 µM | [8] 30.8 µM | [9] > 100 µM | [10] 49.4 µM | [11] 37.3 µM | [12] > 100 µM | [13] > 100 µM | [15] > 100 µM | [16] > 100 µM | [17] > 100 µM | [18] 34.4 µM

CC(O)=NC(Cc1ccc2ccccc2c1)C(O)=NC(Cc1ccc(Cl)cc1)C(O)=NC(Cc1c[nH]c2ccccc12)C(O)=NC(CO)C(O)=NC(Cc1ccc(O)cc1)C(O)=NC(CCCN=C(N)N)C(O)=NC(CC(C)C)C(O)=NC(CCCN=C(N)N)C(=O)N1CCCC1C(O)=NC(C)C(=N)O (stereo not given)
63 µM: [19]
inactive: [1] 63.4 µM | [2] 54.7 µM | [3] 15 µM | [4] 35.5 µM | [5] 37.1 µM | [6] 26.5 µM | [20] 45.9 µM | [8] > 100 µM | [9] 32.4 µM | [10] > 100 µM | [11] 35.5 µM | [13] > 100 µM | [14] 33.7 µM | [15] 37.5 µM | [16] 30.1 µM | [17] 39.5 µM | [18] 34.5 µM

Cc1cn(CC2=NCC(C)(C)N2)c(=O)[nH]c1=O
inactive: [1] > 100 µM | [3] > 100 µM | [4] > 100 µM | [5] > 100 µM | [6] > 100 µM | [20] > 100 µM | [7] > 100 µM | [8] > 100 µM | [9] > 100 µM | [10] > 100 µM | [11] > 100 µM | [12] > 100 µM | [14] > 100 µM | [15] > 100 µM | [16] > 100 µM | [17] > 100 µM | [18] > 100 µM
> 100 µM: [19]
